Assay: molar heat capacity at constant pressure
Settings: 101.33 kPa, Metastable crystal, Vacuum adiabatic calorimetry

O=P([O-])([O-])[O-].[Tb+3] [terbium orthophosphate]
Settings | molar heat capacity at constant pressure [J/K/mol]
7 K | 0.2233
8 K | 0.3348
8.48 K | 0.404
9 K | 0.4742
9.05 K | 0.511
9.71 K | 0.655
10 K | 0.6496
10.37 K | 0.779
11.05 K | 0.934
11.74 K | 1.116
12 K | 1.115
12.45 K | 1.328
13.16 K | 1.551
13.89 K | 1.784
14 K | 1.738
14.62 K | 2.037
15.36 K | 2.349
16 K | 2.51
16.12 K | 2.666
16.88 K | 2.985
17.64 K | 3.316
18 K | 3.404
18.41 K | 3.69
19.18 K | 4.058
19.96 K | 4.44
20 K | 4.388
21.2 K | 5.035
22.67 K | 5.753
24.17 K | 6.522
25 K | 7.043
25.69 K | 7.302
27.22 K | 8.099
28.76 K | 8.951
30 K | 9.779
30.31 K | 9.817
31.87 K | 10.74
33.44 K | 11.64
35 K | 12.55
35.02 K | 12.43
36.6 K | 13.44
38.18 K | 14.4
39.77 K | 15.33
40 K | 15.41
41.38 K | 16.26
42.98 K | 17.22
44.6 K | 18.17
45 K | 18.37
46.24 K | 19.19
47.86 K | 20.2
49.48 K | 21.22
50 K | 21.44
51.11 K | 22.24
52.74 K | 23.26
54.37 K | 24.23
55 K | 24.56
56 K | 25.23
57.64 K | 26.25
59.28 K | 27.25
60 K | 27.69
60.93 K | 28.25
62.57 K | 29.31
64.22 K | 30.35
65.88 K | 31.35
67.53 K | 32.33
69.19 K | 33.27
70 K | 33.8
71.05 K | 34.29
73.13 K | 35.52
75.2 K | 36.74
77.26 K | 38.04
79.33 K | 39.29
80 K | 39.56
81.4 K | 40.39
83.47 K | 41.31
83.73 K | 41.32
85.54 K | 42.27
85.78 K | 42.39
87.61 K | 43.75
87.83 K | 43.95
89.69 K | 44.86
89.89 K | 45.03
90 K | 44.91
91.76 K | 45.8
91.94 K | 46.03
93.84 K | 46.75
94 K | 47.04
95.93 K | 47.75
96.06 K | 48.09
98.01 K | 48.74
98.12 K | 49.05
100 K | 49.89
100.09 K | 49.85
100.18 K | 50.06
102.79 K | 51.27
102.86 K | 51.16
106.14 K | 52.71
109.43 K | 54.24
110 K | 54.53
112.71 K | 55.74
116.01 K | 57.18
119.3 K | 58.57
120 K | 58.89
122.6 K | 59.95
125.9 K | 61.32
129.2 K | 62.65
130 K | 63
132.49 K | 63.94
135.79 K | 65.24
139.09 K | 66.54
140 K | 66.91
142.39 K | 67.77
145.69 K | 69.04
148.98 K | 70.3
150 K | 70.62
152.28 K | 71.55
155.57 K | 72.72
158.87 K | 73.84
160 K | 74.17
162.16 K | 74.93
165.45 K | 76.02
168.73 K | 77.12
170 K | 77.56
172.02 K | 78.29
175.28 K | 79.23
178.56 K | 80.19
180 K | 80.8
181.84 K | 81.29
185.11 K | 82.39
188.38 K | 83.45
190 K | 83.89
191.65 K | 84.37
194.92 K | 85.28
198.18 K | 86.29
200 K | 86.85
201.43 K | 87.36
205.1 K | 88.44
209.15 K | 89.46
210 K | 89.66
213.21 K | 90.54
217.26 K | 91.68
220 K | 92.36
221.31 K | 92.89
225.34 K | 93.96
229.34 K | 95.06
230 K | 94.92
233.27 K | 95.82
237.28 K | 96.8
240 K | 97.37
241.28 K | 97.76
245.26 K | 98.58
249.23 K | 99.5
250 K | 99.7
253.16 K | 100.4
257.1 K | 101.2
260 K | 101.9
260.99 K | 102.1
264.86 K | 102.9
268.76 K | 103.8
270 K | 104
272.6 K | 104.6
276.41 K | 105.3
280 K | 106
280.2 K | 105.9
283.96 K | 106.6
287.7 K | 107.3
290 K | 107.9

Reference: the NIST ThermoML archive (doi:10.1016/j.tca.2016.08.008)
